Measurements as given in patent US5945508A, “Substance P treatment for immunostimulation” (priority 1997, dated 1999).
Where two headings read alike, the source gives them in different places.

Experiments:
immune system = assay: Immunotoxicology of exposure to jet fuel JP-8; assay type: in vivo, C57B16 mice; details: JP-8 exposed animals treated with Substance P
Description: At 24 hours after the last exposure, the animals were sacrificed and the effects of exposure on the immune system examined. Immune organs (spleen, thymus, blood, lymph nodes and bone marrow) were recovered and analyzed for effects on organ weight, total cell numbers, immune cell populations (by differentials), and lymphocyte subpopulations (by flow cytometry). Assays were also performed to examine the effects of exposure on immune function. […] Similar effects on immune cell subpopulations were also observed in lymph nodes. In the thymus it appeared that the immature CD4^+ CD8^+ cells were differentially lost due to exposure. […] However, these effects are prevented or ameliorated by treatment of the animals with Substance P.

[1] = system: murine melanoma B16 cancer cells; details: 1×10^5 B16 cells, mean (SEM)
Description: The mice were infected with 1×10^5 murine melanoma B16 cancer cells by tail vein injection. […] The second group of mice was treated with the same SP dose starting at one week post-injection for seven days. Survival was assessed to determine the effect of SP aerosol therapy in prolonging life when mice are challenged with a massive cancer challenge.

[2] = system: spleen, thymus and bone marrow cells; assay: JP-8 jet fuel exposed mice, cell numbers (FIGS. 1-3); assay type: in vivo, C57BL6 mice; details: 1 micromolar aerosol 15 minutes after each exposure
Source text: Since mice are nose-breathers, they were exposed to the aerosol/vapor mixture via nose-only presentation while they were held in individual loading tubes. The tubes were nose-fitted to receiving adaptors that originated from the common anodized aluminum exposure chamber (volume 0.3 m^3, IN-TOX, Albuquerque, N. Mex.). Noses were positioned in the exposure ports to minimize systemic absorption that might occur during total body exposure or through the process of self-grooming after exposure. The mice were rotated on a daily basis through the 24-adaptor positions of the exposure chamber. This was done to minimize proximity to the jet fuel source as a variable in exposure concentration or composition. Passive entrainment of the jet fuel aerosol/vapor mix and room air through the IN-TOX chamber was conducted by vacuum (15 liters/min). The vacuum was applied to the exposure chamber on the side opposite the fuel source. Animal exposure ports not in use were sealed during the exposure period. Longitudinal controls were sham-exposed in a manner identical to those receiving jet fuel, except that only room air was introduced into the exposure chamber. The exposure chamber was thoroughly cleaned prior to the longitudinal control group's exposure.
The substance P aerosol therapy was performed at the completion of the JP-8 jet fuel exposure. The nebulizer was modified with clean hoses and a new sonication crucible. […] The substance P aerosol therapy was conducted for the same seven day period over a total time period of nine days as the JP-8 jet fuel exposure regimen.

Spleen T Cell = assay: Mitogenesis of spleen T cells, LP-BM5 mouse AIDS model; assay type: in vivo, C57BL6 mice
Description: (§1) C57BL6 mice, average weight of 25-30 grams, were infected with the LP-BM5 murine leukemia retrovirus to simulate the human AIDS virus. […] The mice were divided into two groups; LP-BM5 virus only and LP-BM5 virus+substance P aerosol therapy at 1 μM concentration. The mice were killed at 4 and 8 weeks postinoculation.
The proliferation of splenic B and T cells induced by mitogens was determined by incorporation of radioactive thymidine. Splenocytes in 0.1 ml of cell culture medium (1×10 ^7 cells/ml) were cultured in 96-well flat-bottom cultured plates with ConA and lipopolysaccharide, 5 micrograms/ml). […] After 4 hours for radioactive thymidine uptake, the cells were harvested by a cell sample harvester. Radioactivity was determined by a liquid scintillation counter (Tri-Carb, 2200CA). The T and B cell mitogenesis values were recorded as counts per min in 1×10^7 cells/ml.

interleukin-6 = assay: Spleen cytokine ELISA, LP-BM5 mouse AIDS model; assay type: in vivo, C57BL6 mice; details: SP aerosol 1 μM
Description: as §1
(§2) Spleen cytokine assays for interleukin-6 and interferon-gamma were conducted by standard mouse ELISA assays. The antibodies for IL-6 and interferon-gamma were purchased from Genzyme, Inc. and Collaborative Research, respectively. Briefly, flat bottom polyvinylchloride 96-well enzyme immunoassay plates were coated with […] monoclonal antibody in 0.05 ml bicarbonate buffer (pH 9.6) to each cytokine. After washing in phosphate-buffered saline containing 0.05% (v/v) Tween-20, plates were incubated in blocking reagent (1% bovine serum albumin in buffer). For the standard curves for each cytokine assay, serial dilutions of recombinant cytokine were added to a set of wells from anti-cytokine coated plates. After two hours at room temperature and three subsequent washings, biotinylated-anti-cytokine will be added to respective wells diluted 1:500 in blocking reagent. All plates were then incubated for an additional two hours at room temperature, washed three times, then […] of 1:5000 avidin-peroxidase was added. After an additional 3 washes, […] of the substrate mixture was added to each well (ABTS plus hydrogen peroxide solution). After an incubation at room temperature for 10-15 minutes, stopping reagent ([…] of a 12 g NaOH in 50 ml water solution) was added. Readings were taken at 405 nm with 490 nm reference using a microELISA spectrophotometric plate reader. Values of interluekin-6 and interferon-gamma were expressed as nanograms/ml.

interferon-gamma = assay: Spleen cytokine ELISA, LP-BM5 mouse AIDS model; assay type: in vivo, C57BL6 mice; details: SP aerosol 1 μM
Description: as §1, §2

Spleen B Cell = assay: Mitogenesis of spleen B cells, LP-BM5 mouse AIDS model; assay type: in vivo, C57BL6 mice
Description: as §1
The proliferation of splenic B and T cells induced by mitogens was determined by incorporation of radioactive thymidine. Splenocytes in 0.1 ml of cell culture medium (1×10 ^7 cells/ml) were cultured in 96-well flat-bottom cultured plates with ConA and lipopolysaccharide, 5 micrograms/ml). The cells were incubated at 37° C., 5% CO2 incubator for 72 hours for ConA-induced T cell proliferation, and then pulsed with ^3 H-thymidine (1 microCurie/well). After 4 hours for radioactive thymidine uptake, the cells were harvested by a cell sample harvester. Radioactivity was determined by a liquid scintillation counter (Tri-Carb, 2200CA). The T and B cell mitogenesis values were recorded as counts per min in 1×10^7 cells/ml.

[3] = 4 weeks after LP-BM5 infection, SP aerosol 1 μM 3 days/week, 25 Hours in Culture
[4] = 4 weeks after LP-BM5 infection, SP aerosol 1 μM 3 days/week, 48 Hours in Culture
[5] = 4 weeks after LP-BM5 infection, SP aerosol 1 μM 3 days/week, 72 Hours in Culture
[6] = 8 weeks post-infection with LP-BM5, SP aerosol 1 μM, 72 hours in culture
[7] = 8 weeks post-infection with LP-BM5

## Substance P [SP]
Immune system
  reversal of effects of JP-8 exposure on all measured parameters: invariably reversed the effects on all measured parameters of JP-8 exposure to almost normal levels
[1]; 1 μM SP aerosol 15 min/day 7 days starting immediately
  Days alive after B16 cells: 31.5 (3.8) Days
[1]; SP aerosol 7 days starting one week after B16 cells
  Days alive after B16 cells: 26.0 (2.0) Days
[2]; JP-8 500 or 2500 mg/m^3 7 days
  effect on spleen cell number (FIG. 1): totally reverse the effect of the jet fuel on the spleen cell number
[2]; JP-8 exposed mice
  effect on bone marrow cells (FIG. 3): augments the stimulation substantially
  effect on thymus cell number (FIG. 2): substantially reverses the effect on cell number
Spleen T Cell; [3]
  Spleen T Cell Mitogenesis: 2963 (56) counts per min
Spleen T Cell; [4]
  Spleen T Cell Mitogenesis: 2769 (23) counts per min
Spleen T Cell; [5]
  Spleen T Cell Mitogenesis: 4362 (69) counts per min
Spleen T Cell; [6]
  Spleen T Cell Mitogenesis: 3127 (77) counts per min
interleukin-6; 4 weeks after LP-BM5 infection
  Spleen Cytokine Production Interleukin-6: 0.1334 (0.02) nanogram/ml
interleukin-6; [7]
  Spleen Cytokine Production Interleukin-6: 0.1480 (0.02) nanogram/ml
interferon-gamma; 4 weeks after LP-BM5 infection
  Spleen Cytokine Production Interferon-Gamma: 1.5188 (0.21) nanogram/ml
interferon-gamma; [7]
  Spleen Cytokine Production Interferon-Gamma: 1.072 (0.09) nanogram/ml
Spleen B Cell; [3]
  Spleen B Cell Mitogenesis: 2063 (448) counts per min
Spleen B Cell; [4]
  Spleen B Cell Mitogenesis: 1369 (231) counts per min
Spleen B Cell; [5]
  Spleen B Cell Mitogenesis: 1642 (158) counts per min
Spleen B Cell; [6]
  Spleen B Cell Mitogenesis: 3227 (854) counts per min
